From patent US20230346827A1 (priority 2020, published 2023)

Key:
[1] = system: HDFn + (IL-1β, TNFα, IFNy, EGF, bFGF and PDGF-BB); test: BioMAP HDF3CGF system; assay type: cell-based, human; settings: annotated relative to vehicle controls
Excerpt: Cell types and stimuli used in each system are as follows: 3C system [HUVEC + (IL-1β, TNFα and IFNy)], 4H system [HUVEC + (IL-4 and histamine)], LPS system [PBMC and HUVEC + LPS (TLR4 ligand)], SAg system [PBMC and HUVEC + TCR ligands], BT system [CD19+ B cells and PBMC + (α-IgM and TCR ligands)], BF4T system [bronchial epithelial cells and HDFn + (TNFα and IL-4)], BE3C system [bronchial epithelial cells + (IL-1β, TNFα and IFNy)], CASM3C system [coronary artery smooth muscle cells + (IL-1 β, TNFα and IFNy)], HDF3CGF system [HDFn + (IL-1β, TNFα, IFNy, EGF, bFGF and PDGF-BB)], KF3CT system [keratinocytes and HDFn + (IL-1β, TNFα, IFNy and TGFβ)], MyoF system [differentiated lung myofibroblasts + (TNFα and TGFβ)] and Mphg system [HUVEC and M1 macrophages + Zymosan (TLR2 ligand)].
Systems are derived from either single cell types or co-culture systems. Adherent cell types are cultured in 96 or 384-well plates until confluence, followed by the addition of PBMC (SAg and LPS systems). […] Soluble factors from supernatants are quantified using either HTRF® detection, bead-based multiplex immunoassay or capture ELISA. Overt adverse effects of test agents on cell proliferation and viability (cytotoxicity) are detected by sulforhodamine B (SRB) staining, for adherent cells, and alamarBlue® reduction for cells in suspension. […]

[2] = system: ALS patients; test: ALSFRS-R / clinical observation in ALS patients (Example 15); assay type: in vivo, human; settings: five-week treatment period
Procedure: Dextran sulfate (Tikomed AB, Viken, Sweden, WO 2016/076780) was administered at 1 mg/kg by […] subcutaneous injection once a week for five weeks to 13 human patients suffering from ALS.
ALSFRS-R was assessed pre-treatment and weekly thereafter for the 5 treatment weeks and for the visits at the follow-up period.

sodium salt of dextran sulfate [LMW-DS] was tested, and the Decreased biomarker activity [1] was “VCAM-1, IP-10, ITAC, MIG, M-CSF”, the Increased biomarker activity [1] was “EGFR, MMP-1, PAI-1” and the “severe bulbar paresis (two patients)” value [2] was “almost complete resolution”.
